Results: PubChem BioAssay (NCI)
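Cultured in 96-well plates, cells were exposed to test compound for 48 hours across five concentrations. The concentration for 50% growth inhibition is given as GI50. TGI: total growth inhibition.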

How the values were obtained:
Experiment in all cases: DTP human tumour cell line panel, 48 h
SK-MEL-2 melanoma = test system: SK-MEL-2 melanoma
A498 renal = test system: A498 renal
LOX IMVI melanoma = test system: LOX IMVI melanoma
RPMI-8226 leukemia = test system: RPMI-8226 leukemia
IGROV1 ovarian = test system: IGROV1 ovarian
SN12C renal = test system: SN12C renal
OVCAR-8 ovarian = test system: OVCAR-8 ovarian
HCT-15 colon = test system: HCT-15 colon
NCI-H460 lung = test system: NCI-H460 lung
NCI/ADR-RES ovarian = test system: NCI/ADR-RES ovarian

SMILES | TGI (SK-MEL-2 melanoma) | TGI (A498 renal) | TGI (LOX IMVI melanoma) | TGI (RPMI-8226 leukemia) | TGI (IGROV1 ovarian) | TGI (SN12C renal) | TGI (OVCAR-8 ovarian) | TGI (HCT-15 colon) | TGI (NCI-H460 lung) | TGI (NCI/ADR-RES ovarian) | GI50 (SK-MEL-2 melanoma) | GI50 (A498 renal) | GI50 (LOX IMVI melanoma) | GI50 (RPMI-8226 leukemia) | GI50 (IGROV1 ovarian) | GI50 (SN12C renal) | GI50 (OVCAR-8 ovarian) | GI50 (HCT-15 colon) | GI50 (NCI-H460 lung) | GI50 (NCI/ADR-RES ovarian)
c1ccc2sc(SCCSc3nc4ccccc4s3)nc2c1 | > 100 µM | > 100 µM | > 100 µM | > 100 µM | > 100 µM | > 100 µM | > 100 µM | > 100 µM | > 100 µM | > 100 µM | – | – | – | – | – | – | – | – | – | –
Cc1cc(S(=O)(=O)Nc2nc3ccccc3o2)c(SCc2ccccc2)cc1Cl | > 100 µM | 43.3 µM | 34.8 µM | 30.1 µM | > 100 µM | 90.1 µM | 50.2 µM | 52.8 µM | 52.2 µM | 40.9 µM | 48.6 µM | 23.1 µM | 14.9 µM | 11.2 µM | 48.9 µM | 32.1 µM | 21 µM | 21.5 µM | 15.5 µM | 20 µM
COc1ccc(C(c2cc(OC)c(OC)c(OC)c2)n2ccnc2)cc1O (stereo not given) | – | 0.941 µM | > 100 µM | > 100 µM | > 100 µM | > 100 µM | – | > 100 µM | > 100 µM | > 100 µM | – | 0.304 µM | 0.525 µM | 0.385 µM | 0.862 µM | 0.91 µM | – | 0.464 µM | 0.377 µM | 1.92 µM
NNC(=S)N/N=C(\C(=O)Nc1cccc(O)c1)C1C(=O)NC(=S)NC1=O | > 100 µM | > 100 µM | > 100 µM | > 100 µM | > 100 µM | > 100 µM | > 100 µM | > 100 µM | > 100 µM | > 100 µM | – | – | – | – | – | – | – | – | – | –
COC(=O)c1n[nH]c(C)c1N=NN(C)CCC#N | 61.9 µM | > 100 µM | > 100 µM | 34.9 µM | 93.6 µM | 33.8 µM | 34.4 µM | 32.1 µM | 36.5 µM | 36.4 µM | – | – | – | – | – | – | – | – | – | –
CC1=CC(=O)C2=C(C)CCC3C(C)C(=O)OC3C12 (stereo not given) | > 100 µM | > 100 µM | > 100 µM | > 100 µM | > 100 µM | > 100 µM | > 100 µM | > 100 µM | > 100 µM | > 100 µM | – | – | – | – | – | – | – | – | – | –
CCSCC1CC(O)(c2ccccc2)CC(c2ccc(F)cc2)O1 (stereo not given) | 3.53 µM | 2.77 µM | 2.94 µM | 6.46 µM | 5.75 µM | 3.17 µM | 8.79 µM | 5.49 µM | 4.63 µM | 6.66 µM | 1.79 µM | 1.44 µM | 1.6 µM | 1.95 µM | 2.12 µM | 1.74 µM | 2.95 µM | 2.11 µM | 2.24 µM | 2.44 µM
CCCCCCCCCCCCOC1C(CNC(=O)C2OC3OC(C)(C)OC3C2NC(=O)Nc2ccc(CC(=O)OC)cc2)OC2OC(C)(C)OC21 (stereo not given) | > 100 µM | > 100 µM | > 100 µM | > 100 µM | > 100 µM | > 100 µM | > 100 µM | > 100 µM | > 100 µM | > 100 µM | > 100 µM | > 100 µM | 47.7 µM | > 100 µM | > 90.9 µM | > 100 µM | > 100 µM | > 100 µM | > 100 µM | > 100 µM
Fc1cccc(COc2ccc(Nc3ncnc4sc(-c5cccs5)cc34)cc2Cl)c1 | 8.83 µM | > 21.7 µM | > 25 µM | > 25 µM | > 25 µM | > 25 µM | > 17.4 µM | > 25 µM | > 17 µM | > 17.3 µM | 2.46 µM | 6.88 µM | > 14.6 µM | > 25 µM | 8.73 µM | 9.2 µM | 5.5 µM | 9.11 µM | 7.63 µM | 4.74 µM
COc1ccc(C2CC(c3cccc(Nc4ccnc5cc(Cl)ccc45)c3)=NN2C=O)cc1 (stereo not given) | 6.41 µM | 4.2 µM | 6.8 µM | > 24 µM | > 100 µM | > 100 µM | > 100 µM | > 100 µM | > 100 µM | 4.92 µM | 0.457 µM | 0.325 µM | 0.584 µM | 3.64 µM | 1.9 µM | 0.807 µM | 1.12 µM | 0.541 µM | 0.415 µM | 0.379 µM
O=c1c2c(=NCCN3CCCC3)cc3c(=O)n(CCCN4CCOCC4)c(=O)c4c(-c5ccc(CN6CCCC6)cc5)cc(c(O)n1CCCN1CCOCC1)c2c4-3 | 0.382 µM | 0.155 µM | 0.234 µM | 0.409 µM | 1.47 µM | 1.37 µM | 2.24 µM | 1.11 µM | 0.245 µM | 9.65 µM | 0.112 µM | 0.0381 µM | 0.0369 µM | 0.0368 µM | 0.0399 µM | < 0.0221 µM | < 0.0255 µM | 0.0664 µM | 0.0247 µM | 0.364 µM
Cc1nc([P+](c2ccccc2)(c2ccccc2)c2ccccc2)c(Sc2sc(-c3ccccc3)nc2[P+](c2ccccc2)(c2ccccc2)c2ccccc2)o1 | 4.92 µM | 4.68 µM | 5.71 µM | 1.25 µM | 4.83 µM | 6.88 µM | 11.6 µM | 7.68 µM | 2.8 µM | 19.8 µM | 2.15 µM | 1.5 µM | 1.82 µM | 0.27 µM | 1.4 µM | 1.72 µM | 0.867 µM | 2.15 µM | 1.13 µM | 3.7 µM
COc1ccc(C2=N[C@@H](Cc3ccccc3)C(=O)Nc3ccsc32)cc1 | 30 µM | 9.04 µM | 22 µM | 18.8 µM | 41 µM | 25.7 µM | 57.6 µM | 20.4 µM | 14.4 µM | 33 µM | 11.7 µM | 2.32 µM | 6.48 µM | 3.29 µM | 12.8 µM | 8.28 µM | 6.31 µM | 3.9 µM | 3.53 µM | 3.84 µM
CCOC(=O)c1cc(C(=O)c2cc(OC)c(OC)c(OC)c2)n2ncccc12 | > 100 µM | 0.742 µM | > 100 µM | – | > 100 µM | > 100 µM | > 100 µM | > 100 µM | > 100 µM | > 42.9 µM | 0.466 µM | 0.0466 µM | 2.46 µM | 0.316 µM | 3.47 µM | 0.821 µM | 0.584 µM | 0.251 µM | 0.335 µM | 0.237 µM
